This note sets out measurements from patent US10544110B2, “Small molecule inhibitors of the nuclear translocation of androgen receptor for the treatment of castration-resistant prostate cancer” (University of Pittsburgh-Of the Commonwealth System of …, priority 2013, dated 2020).

The term IC50 denotes the midpoint of a concentration-inhibition curve.

In one assay the test system is 22Rv 1 xenograft tumors. Description: 22Rv1 xenograft tumor growth. In kind it is in vivo. As to conditions: castrated SCID mice, daily IP 10 mg/kg and 75 mg/kg. How it is done:
FIG. 11 is a graph showing the effect of compound JJ-450 at indicated concentrations on 22Rv 1 xenograft tumor volume. JJ-450 was injected i.p. daily.
22Rv 1 xenograft tumors were established in SCID mice by subcutaneous injection of 2×10^6 cells in Matrigel. Once the tumors reached ˜150 μL in volume, the mice were castrated and randomized into 3 groups for daily IP injection of vehicle (n=11), 10 mg/kg (n=11) and 75 mg/kg (n=11) groups. Injection of JJ-450 was initiated at time of castration. Tumor volumes were measured 3 times every week. […] Error bars, SEM.

Assay [1] deals with AR transcriptional activity (PSA promoter activity). Description: PSA luciferase assay in C4-2-PSA-rl cells (Dual-Glo luciferase system). As to conditions: for IC50 / activity in PSA luciferase assay (in words): C4-2-PSA-rl cells; for IC50: 24 h treatment, 1 nM R1881, mean and SD of 2-6 independent experiments; for activity in PSA luciferase assay (in words): up to 25 μM.
Experimental: C4-2-PSA-rl cells were seeded in 24-well plates such that they reached 75-80% cell monolayer density after 24 h. […] Each compound was tested in at least two independent experiments. Luciferase activity was assayed using the Dual-Luciferase® Reporter Assay System (Promega) using LMax II Microplate Reader (Molecular Devices). The luciferase assay results were acquired using SoftMax Pro5.45 software (Molecular Devices) and analyzed using GraphPad Prism. PSA6.1-luc activity was normalized to the Renilla luciferase activity. Relative luciferase activity was calculated as the quotient of androgen-induced PSA-firefly/Renilla luciferase activity. Since PSA promoter activity correlates to AR transcriptional activity, inhibition of AR will result in decreased PSA-luciferase activity.
For a further assay, the system named is LNCaP xenograft tumors. Description: LNCaP xenograft tumor growth. In kind it is in vivo. As to conditions: castrated SCID mice, oral gavage 10 or 75 mg/kg or IP 10 mg/kg, started 2 weeks after castration. How it is done: FIG. 12 is a graph showing the effect of compound JJ-450 at indicated concentrations and administration route on LNCaP xenograft tumor volume. JJ-450 was administered 6 times, from Monday to Saturday, every week
LNCaP xenograft tumors were established in SCID mice by subcutaneous injection of 2×10^6 cells in Matrigel. Once the tumors reached ˜200 ul in volume, the mice were castrated and randomized into 4 groups: oral gavage of vehicle (n=6), oral gavage at 10 mg/kg (n=6), IP injection at 10 mg/kg (n=8), and oral gavage at 75 mg/kg (n=7) groups. Administration of JJ-450 was started 2 weeks after castration. Tumor volumes were measured twice every week. […] Error bars, SEM.

The next assay has as its system 22Rv1. Description: Effectiveness against androgen-dependent prostate cancer cell line 22Rv1. It counts as cell-based.

The structures appear in SMILES notation. Values joined by “and” are separate entries in the source; they are usually repeats but may differ in a detail not shown here. Equal values may be shown once. A value given as a limit tells only on which side of the number the result lay.

Turning to `Cc1ccc(Cl)cc1N1CCN(C(=O)[C@@H]2C[C@@H]2c2ccc(F)cc2)CC1` (racemic) [JJ-450, (4-(5-Chloro-2-methylphenyl)piperazin-1-yl)((1RS,2SR)-2-(4-fluorophenyl)cyclopropyl)-methanone], the “22Rv1 xenograft tumor growth (tumor volume)” value with 22Rv 1 xenograft tumors is on record as “significantly inhibited tumor growth”. Moreover, the IC50 in assay [1] (24 h) turned out to be 2.7 ± 1.1 µM. In addition, the “activity in PSA luciferase assay (in words)” value (shortened to “activity … (in words)”) in assay [1] is given as “significantly more potent than 1”. Further, the “LNCaP xenograft tumor growth (tumor volume)” value in the assay with LNCaP xenograft tumors is listed as “significantly inhibited tumor growth”.

Take `Cc1cccc(N2[C@H](C)CN(C(=O)CSCc3c(C)noc3C)C[C@@H]2C)c1` [Compound 5m, 1-(3,5-Dimethyl-4-(m-tolyl)piperazin-1-yl)-2-(((3,5-dimethylisoxazol-4-yl)methyl)thio)ethan-1-one]: the concentration for half-maximal inhibition (IC50) in assay [1] (24 h) is 15 to 17 µM; in assay [1] it was 16.6 ± 4.8 µM.

In assay [1] (24 h), `Cc1ccccc1N1CCN(CCSCc2c(C)noc2C)CC1` [Compound 6, 3,5-Dimethyl-4-(((2-(4-(o-tolyl)piperazin-1-yl)ethyl)thio)methyl)isoxazole] displayed an IC50 of 10.8 µM. Besides, the “increase in activity relative to amide 5b” value in assay [1] (amine 6 vs amide 5b) turned out to be 1.3 fold.

Regarding `Cc1ccccc1N1CCN(C(=O)CSCc2ccccc2)CC1` [Compound 7, 2-(Benzylthio)-1-(4-(o-tolyl)piperazin-1-yl)ethanone], the values for the IC50 in assay [1] (24 h) and in assay [1] were 14 µM and 13.7 ± 0.8 µM, respectively.

As to `Cc1ccccc1N1CCN(C(=O)CCCc2ccccc2)CC1` [Compound 8, 4-Phenyl-1-(4-(o-tolyl)piperazin-1-yl)butan-1-one], the IC50 in assay [1] (24 h) came out at 14 µM; in assay [1] it was 14.4 ± 3.7 µM.

In assay [1] (24 h), `Cc1ccccc1N1CCN(C(=O)CSc2ccccc2)CC1` [Compound 9, 2-(Phenylthio)-1-(4-(o-tolyl)piperazin-1-yl)ethan-1-one] registered an IC50 above 25 µM. In addition, the “activity … (in words)” value in assay [1] was “abolished activity”.

In assay [1] (24 h), `Cc1ccccc1N1CCN(C(=O)C#Cc2ccccc2)CC1` [Compound 10, 3-Phenyl-1-(4-(o-tolyl)piperazin-1-yl)prop-2-yn-1-one] came in with an IC50 of 20.3 ± 11.6 µM. Besides, in assay [1], the “activity … (in words)” value was “essentially inactive”.

Turning to `Cc1ccccc1N1CCN(C(=O)/C=C/c2ccccc2)CC1` [Compound 11, (E)-3-Phenyl-1-(4-(o-tolyl)piperazin-1-yl)prop-2-en-1-one], the IC50 in assay [1] (24 h) was above 25 µM. In addition, the “activity … (in words)” value in assay [1] is “essentially inactive”.

As to `Cc1ccccc1N1CCN(C(=O)C[S+]([O-])Cc2c(C)noc2C)CC1` (stereo not drawn) [Compound 12, 2-(((3,5-Dimethylisoxazol-4-yl)methyl)sulfinyl)-1-(4-(o-tolyl)piperazin-1-yl)ethan-1-one], the IC50 in assay [1] (24 h) was above 25 µM. The “activity … (in words)” value in assay [1] was “inactive”.

`Cc1ccccc1N1CCN(C(=O)CS(=O)(=O)Cc2c(C)noc2C)CC1` [Compound 13, 2-(((3,5-Dimethylisoxazol-4-yl)methyl)sulfonyl)-1-(4-(o-tolyl)piperazin-1-yl)ethan-1-one]: in assay [1] (24 h), the half-inhibitory concentration (IC50) was 16.1 µM.

Turning to `Cc1ccccc1N1CCN(C(=O)/C=C\c2ccccc2)CC1` [Compound 14, (Z)-3-Phenyl-1-(4-(o-tolyl)piperazin-1-yl)prop-2-en-1-one], in assay [1] (24 h), the IC50 was determined as 12.7 µM.

`Cc1ccccc1N1CCN(C(=O)C2CC2c2ccccc2)CC1` (stereo not drawn) [Compound 15, (2-Phenylcyclopropyl)(4-(o-tolyl)piperazin-1-yl)methanone] gave an IC50 in assay [1] (24 h) of 2.9 µM. In addition, the “activity … (in words)” value in assay [1] is reported as “significantly more potent than 1”.

Take `Cc1ccccc1N1CCN(C(=O)COCc2c(C)noc2C)CC1` [Compound 18a, 2-((3,5-Dimethylisoxazol-4-yl)methoxy)-1-(4-(o-tolyl)piperazin-1-yl)ethan-1-one]: the IC50 in assay [1] (24 h) is above 25 µM. Further, the “activity … (in words)” value in assay [1] is listed as “abolished activity”.

Molecule `Cc1ccccc1N1CCN(C(=O)CN(C)Cc2ccccc2)CC1` [Compound 18b, 2-(Benzyl(methyl)amino)-1-(4-(o-tolyl)piperazin-1-yl)ethanone] displayed an IC50 in assay [1] (24 h) above 25 µM. Moreover, the “activity … (in words)” value in assay [1] is recorded as “abolished activity”.

The molecule `Cc1ccccc1N1CCN(S(=O)(=O)CSCc2c(C)noc2C)CC1` [Compound 18c, 3,5-Dimethyl-4-(((((4-(o-tolyl)piperazin-1-yl)sulfonyl)methyl)thio)methyl)isoxazole] yielded an IC50 in assay [1] (24 h) of 7.2 µM.

Molecule `Cc1ccccc1N1CCN(C(=O)NCSCc2c(C)noc2C)CC1` [Compound 20a, N-((((3,5-Dimethylisoxazol-4-yl)methyl)thio)methyl)-4-(o-tolyl)piperazine-1-carboxamide] had an IC50 in assay [1] (24 h) above 25 µM. The “activity … (in words)” value in assay [1] was “inactive”.

Regarding `Cc1ccccc1N1CCC(OC(=O)NCSCc2c(C)noc2C)CC1` [Compound 20b], the concentration for half-maximal inhibition (IC50) in assay [1] (24 h) is above 25 µM. The “activity … (in words)” value in assay [1] was “inactive”.

For `Cc1ccccc1C1CC2CCC(C1)N2C(=O)CSCc1c(C)noc1C` (stereo not drawn) [Compound 26a, 2-(((3,5-Dimethylisoxazol-4-yl)methyl)thio)-1-(3-endo-(o-tolyl)-8-azabicyclo[3.2.1]octan-8-yl)ethanone], in assay [1], the IC50 was 8 µM and 7.7 µM.

As for `Cc1ccccc1[C@@H]1C[C@H]2CC[C@@H](C1)N2C(=O)CSCc1c(C)noc1C` [Compound 26b], in assay [1], the IC50 is 8 µM and 7.9 µM.

For `Cc1ccc(Cl)cc1N1CCN(C(=O)[C@H]2C[C@H]2c2ccc(F)cc2)CC1` [JJ-450A, (4-(5-chloro-2-methylphenyl)piperazin-1-yl)((1S,2R)-2-(4-fluorophenyl)cyclopropyl)methanone], in assay [1] (24 h), half-maximal inhibition (IC50) required 1.6 ± 0.1 µM. Also, the “activity … (in words)” value in assay [1] was “significantly more potent than 1”.

In assay [1] (24 h), `Cc1ccc(Cl)cc1N1CCN(C(=O)[C@@H]2C[C@@H]2c2ccc(F)cc2)CC1` [JJ-450B, (4-(5-Chloro-2-methylphenyl)piperazin-1-yl)((1R,2S)-2-(4-fluorophenyl)cyclopropyl)-methanone] showed an IC50 of 13.1 ± 1.8 µM.

For the molecule `CNC(=O)c1ccc(N2C(=S)N(c3ccc(C#N)c(C(F)(F)F)c3)C(=O)C2(C)C)cc1F` [MDV3100, enzalutamide], the “effectiveness against 22Rv1” value with 22Rv1 was “ineffective”.
